Experimental data published in US11254696B2, “Dianilinopyrimidine compound for inhibiting kinase activity” (Shenzhen Targetrx, Inc., priority 2017, dated 2022).

Experiments:
[1] = molecular target: T1, BaF3 [EML4-ALK] (Homo sapiens, UniProt Q9UM73); test: Cytotoxicity test (CellTiter-Glo), BaF3 [EML4-ALK]; type: cell-based; conditions: 72 hours, CellTiter-Glo; read-out: IC50(nM) ALK (Ba/F3)
T1 construct: IC50(nM) ALK (Ba/F3); other: 72 hours, CellTiter-Glo; BaF3 [EML4-ALK]; fused on or other part: Q9HC35 (Echinoderm microtubule-associated protein-like 4)
T1 sequence (Q9UM73 whole entry, change not shown, the tested form may be a part): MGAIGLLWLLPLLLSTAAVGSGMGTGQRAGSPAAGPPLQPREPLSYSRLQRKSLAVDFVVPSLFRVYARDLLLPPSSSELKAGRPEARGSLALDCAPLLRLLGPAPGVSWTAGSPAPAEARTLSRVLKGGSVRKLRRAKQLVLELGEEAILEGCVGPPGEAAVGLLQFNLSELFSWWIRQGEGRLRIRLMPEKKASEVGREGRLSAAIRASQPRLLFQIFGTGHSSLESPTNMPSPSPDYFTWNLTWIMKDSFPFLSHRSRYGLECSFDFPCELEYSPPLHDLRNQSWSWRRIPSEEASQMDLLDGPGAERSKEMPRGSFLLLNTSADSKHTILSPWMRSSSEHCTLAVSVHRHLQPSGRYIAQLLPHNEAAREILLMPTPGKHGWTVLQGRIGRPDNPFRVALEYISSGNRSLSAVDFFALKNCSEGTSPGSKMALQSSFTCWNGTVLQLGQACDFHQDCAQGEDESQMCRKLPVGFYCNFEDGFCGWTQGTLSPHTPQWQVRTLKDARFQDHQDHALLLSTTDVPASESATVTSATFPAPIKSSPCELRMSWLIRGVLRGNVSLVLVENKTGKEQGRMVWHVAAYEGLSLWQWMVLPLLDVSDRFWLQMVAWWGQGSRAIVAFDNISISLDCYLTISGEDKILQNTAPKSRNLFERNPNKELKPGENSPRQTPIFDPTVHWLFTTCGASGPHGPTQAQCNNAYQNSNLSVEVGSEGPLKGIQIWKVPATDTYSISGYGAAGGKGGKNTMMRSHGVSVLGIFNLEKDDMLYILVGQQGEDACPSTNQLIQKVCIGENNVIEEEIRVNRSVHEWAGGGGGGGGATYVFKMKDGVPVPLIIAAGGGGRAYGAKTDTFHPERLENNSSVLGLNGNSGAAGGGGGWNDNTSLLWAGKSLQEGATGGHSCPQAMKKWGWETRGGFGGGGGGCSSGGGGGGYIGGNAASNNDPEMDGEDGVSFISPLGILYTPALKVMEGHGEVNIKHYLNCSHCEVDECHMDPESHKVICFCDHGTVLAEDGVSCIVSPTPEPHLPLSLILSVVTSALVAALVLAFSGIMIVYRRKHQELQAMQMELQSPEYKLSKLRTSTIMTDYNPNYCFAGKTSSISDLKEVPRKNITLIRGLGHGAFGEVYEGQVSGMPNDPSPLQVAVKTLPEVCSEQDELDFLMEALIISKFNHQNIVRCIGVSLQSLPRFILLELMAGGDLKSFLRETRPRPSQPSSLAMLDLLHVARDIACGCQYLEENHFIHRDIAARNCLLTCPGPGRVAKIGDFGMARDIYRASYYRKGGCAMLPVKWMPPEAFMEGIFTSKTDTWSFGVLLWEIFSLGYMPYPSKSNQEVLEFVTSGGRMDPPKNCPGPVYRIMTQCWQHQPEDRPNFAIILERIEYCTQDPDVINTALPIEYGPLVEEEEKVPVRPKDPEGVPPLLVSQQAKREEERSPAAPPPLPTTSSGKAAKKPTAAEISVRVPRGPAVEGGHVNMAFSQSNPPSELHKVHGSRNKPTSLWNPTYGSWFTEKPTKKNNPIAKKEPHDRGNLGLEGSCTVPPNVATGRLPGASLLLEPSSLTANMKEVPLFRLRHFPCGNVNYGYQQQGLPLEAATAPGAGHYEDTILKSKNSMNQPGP
Experimental: (§1) The in vitro anti-proliferative activity of the compounds of the present disclosure against three types of cells that are cultured in vitro was tested by CellTiter-Glo method.
(§2) Cell lines: BaF3 parental; BaF3 [EML4-ALK] (From WuXi PharmaTech) and BaF3 [EMF4-AFK F1196M] (From WuXi PharmaTech); wherein, BaF3 parental was cultured in RPMI1640 medium containing 10 ng/ml IL-3, 10% fetal bovine serum, 100 U/ml penicillin, and 100 μg/ml streptomycin, BaF3 [EMF4-AFK] and BaF3 [EMF4-AFK F1196M] were cultured in RPMI1640 medium containing 10% fetal bovine serum, 100 U/ml penicillin, and 100 μg/ml streptomycin.
(§3) Reagents and materials: RPMI-1640 (GIBCO, Cat. No. A10491-01); fetal bovine serum (GIBCO, Cat. No. 10099141); 0.25% trypsin-EDTA (GIBCO, Cat. No. 25200); penicillin-streptomycin, liquid (GIBCO, Cat. No. 15140-122); DMSO (Sigma, Cat. No. D2650); CellTiter-Glo Test Kit (Promega, Cat. No. G7572), and 96-well plate (Corning, Cat. No. 3365).
(§4) 1. The test compounds were dissolved in DMSO to make stock solutions and subjected to a series gradient dilution to give solutions with 10-fold working concentration.
(§5) 2. The cells in the logarithmic growth phase were diluted with the culture solution to adjust to the specific cell concentration, 90 μi of cell suspension was added to the 96-well plate to make the cell density reach the specified concentration. The plate was incubated in a incubator at 37° C., containing 5% carbon dioxide gas overnight.
(§6) 3. 10 μl drug solutions were added to each well of the 96-well plate inoculated with cells. 10 concentrations of the compounds were tested starting from the highest concentration of 20 μM with a 3-fold series gradient dilution in duplicate.
(§7) 4. After continuously cultured for 72 hours, the cells were detected by CellTiter-Glo for the cell viability. The dose-effect curve was made using GraphPad Prism software and IC50 was calculated.

[2] = test system: BaF3 [EML4-ALK]; test: Cytotoxicity test (CellTiter-Glo), BaF3 [EML4-ALK]; type: cell-based; conditions: Ba/F3 cells
Experimental: as §1, §2, §3, §4, §5, §6, §7

[3] = Metabolic stability in rat liver microsomes; type: in vitro ADME; conditions: SD, pH 7.4, 1 μM compound, 0.5 mg/mL protein; for microsomal CLint at 1 μM: read-out: CLint (uL/min/mg), Rat liver microsome experiment; for half-life at 1 μM: read-out: t1/2 (min), Rat liver microsome experiment
Experimental: (§8) Experiments in microsomes: Human liver microsomes: 0.5 mg/mL, Xenotech; Rat liver microsomes: 0.5 mg/mL, Xenotech; Coenzyme (NADPH/NADH): 1 mM, Sigma Life Science; Magnesium chloride: 5 mM, 100 mM phosphate buffer (pH 7.4).
(§9) Preparation of stock solution: Powder of the example compounds was accurately weighed and dissolved in DMSO to 5 mM. Preparation of phosphate buffer (100 mM, pH7.4): A pre-formulated 0.5M potassium dihydrogen phosphate (150 mL) was mixed with 0.5M dibasic potassium phosphate (700 mL). The pH of the mixture was adjusted to 7.4 with 0.5M dibasic potassium phosphate solution. The mixture was diluted 5-fold with ultrapure water before use, and magnesium chloride was added to obtain a phosphate buffer (100 mM) containing 100 mM potassium phosphate, 3.3 mM magnesium chloride, pH7.4. A NADPH regeneration system solution (containing 6.5 mM NADP, 16.5 mM G-6-P, 3 U/mL G-6-PD, 3.3 mM magnesium chloride) was prepared and placed on wet ice prior to use. Preparation of stop solution: acetonitrile solution containing 50 ng/mL propranolol hydrochloride and 200 ng/mL tolbutamide (internal standard). 25057.5 μL of phosphate buffer (pH 7.4) was taken into a 50 mL centrifuge tube, to which 812.5 μL human liver microsomes were added, and mixed to obtain a liver microsome dilution solution with a protein concentration of 0.625 mg/mL. 25057.5 μL of phosphate buffer (pH 7.4) was taken into a 50 mL centrifuge tube, to which 812.5 μL SD rat liver microsomes were added, and mixed to obtain a liver microsome dilution solution with a protein concentration of 0.625 mg/mL.
(§10) Incubation of the samples: The stock solution of the respective compound was respectively diluted to 0.25 mM with an aqueous solution containing 70% acetonitrile, and used as a working solution, ready for use. 398 μL of the dilution solution of human liver microsomes or rat liver microsome were added to a 96-well incubation plate (N=2), respectively, and 2 μL of 0.25 mM working solution was added and mixed.
(§11) Metabolic stability assay: 300 μL of pre-chilled stop solution was added to each well of a 96-well deep well plate and placed on ice as a stop plate. The 96 well incubation plate and NADPH regeneration system were placed in a 37° C. water bath box, shaken at 100 rpm and pre-incubated for 5 min. 80 μL of incubation solution was taken out from each well of the incubation plate and added to the stop plate, mixed, and replenished with 20 μL of NADPH regeneration system solution as a 0-min sample. 80 μL of NADPH regeneration system solution was added to each well of the incubation plate to start the reaction and start counting. […] Separately, 100 μL of the reaction solution was taken at 10, 30, and 90 min reaction, respectively, added to a stop plate, and vortexed for 3 minutes to terminate the reaction. The stop plate was centrifuged at 5000×g at 4° C. for 4 min. 100 μL of the supernatant was added to a 96-well plate to which 100 μL of distilled water was previously added, mixed, and analyzed by LC-MS/MS.
(§12) Data analysis: The peak areas of the corresponding compound and internal standard were detected by LC-MS/MS system, and the ratio of the peak area of the compound to the internal standard was calculated.

[4] = molecular target: ALK [WT] (Homo sapiens, UniProt Q9UM73); test: Kinase inhibition assay, ALK [WT]; type: biochemical
Chain of ALK [WT] (Q9UM73 19-1620): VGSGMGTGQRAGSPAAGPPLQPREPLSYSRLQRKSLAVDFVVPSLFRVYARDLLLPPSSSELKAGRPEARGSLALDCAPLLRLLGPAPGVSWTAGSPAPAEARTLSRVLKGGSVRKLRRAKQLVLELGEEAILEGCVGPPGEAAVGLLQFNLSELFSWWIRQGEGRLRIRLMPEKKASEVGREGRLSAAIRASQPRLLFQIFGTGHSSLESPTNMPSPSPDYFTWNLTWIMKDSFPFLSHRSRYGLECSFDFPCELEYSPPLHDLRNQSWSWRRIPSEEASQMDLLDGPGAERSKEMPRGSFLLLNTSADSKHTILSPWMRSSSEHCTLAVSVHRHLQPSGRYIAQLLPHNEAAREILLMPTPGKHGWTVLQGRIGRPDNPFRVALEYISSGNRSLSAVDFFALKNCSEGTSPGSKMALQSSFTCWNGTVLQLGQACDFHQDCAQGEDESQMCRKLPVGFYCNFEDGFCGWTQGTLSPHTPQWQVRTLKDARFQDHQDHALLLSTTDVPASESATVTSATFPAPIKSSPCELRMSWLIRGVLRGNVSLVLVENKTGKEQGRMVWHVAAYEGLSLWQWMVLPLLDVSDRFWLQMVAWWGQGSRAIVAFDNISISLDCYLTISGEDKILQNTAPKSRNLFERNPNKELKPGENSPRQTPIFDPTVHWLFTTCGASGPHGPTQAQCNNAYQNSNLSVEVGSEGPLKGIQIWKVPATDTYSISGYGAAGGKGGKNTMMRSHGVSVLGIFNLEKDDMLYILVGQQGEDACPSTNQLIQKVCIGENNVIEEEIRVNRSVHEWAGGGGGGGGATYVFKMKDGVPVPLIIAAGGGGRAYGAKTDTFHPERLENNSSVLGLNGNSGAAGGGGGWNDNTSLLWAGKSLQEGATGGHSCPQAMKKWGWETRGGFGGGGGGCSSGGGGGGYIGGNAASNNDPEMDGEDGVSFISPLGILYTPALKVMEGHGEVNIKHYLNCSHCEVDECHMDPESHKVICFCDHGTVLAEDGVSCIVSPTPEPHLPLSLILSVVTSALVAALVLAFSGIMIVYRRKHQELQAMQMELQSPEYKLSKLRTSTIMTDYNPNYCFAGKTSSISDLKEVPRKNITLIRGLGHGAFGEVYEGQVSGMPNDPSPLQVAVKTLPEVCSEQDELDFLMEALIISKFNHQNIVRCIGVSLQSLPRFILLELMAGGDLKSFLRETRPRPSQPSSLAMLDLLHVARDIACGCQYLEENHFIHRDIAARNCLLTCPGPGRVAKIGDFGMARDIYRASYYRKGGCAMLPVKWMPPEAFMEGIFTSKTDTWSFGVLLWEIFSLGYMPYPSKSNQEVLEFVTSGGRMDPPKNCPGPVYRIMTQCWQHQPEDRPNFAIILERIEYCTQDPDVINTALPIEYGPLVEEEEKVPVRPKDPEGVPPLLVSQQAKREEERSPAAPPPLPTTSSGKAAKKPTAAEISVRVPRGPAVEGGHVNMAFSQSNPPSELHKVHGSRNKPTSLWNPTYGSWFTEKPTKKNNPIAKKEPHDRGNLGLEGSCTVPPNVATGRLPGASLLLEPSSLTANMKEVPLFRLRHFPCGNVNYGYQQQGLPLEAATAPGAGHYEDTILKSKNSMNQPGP
Experimental: (§13) Compound preparation: The test compounds were dissolved in DMSO to make 20 mM stock solutions. The compounds were diluted in DMSO to 0.1 mM (a dilution with 100 times the final concentration) before use, and a 3-fold series gradient dilution with 11 concentrations was made. Dilutions with 4 times of the final concentration were prepared by diluting with buffer when dosing.
(§14) Kinase assay: after preparing the buffer solution, the enzyme was mixed with pre-diluted compounds with different concentrations, and placed at room temperature for 30 minutes in duplicate. The corresponding substrate and ATP were added thereto and reacted at room temperature for 60 minutes (both a negative and a positive control were set). After the reaction, antibody was added for detection, and after incubation at room temperature for 60 minutes, Evnvision detection was carried out, and data was collected. Data was analyzed and fit according to XLfit5 software. IC50 was calculated by the following formula: (IC50=[(ABS test−ABS begin)/(ABS control−ABS begin)]×100).

[5] = molecular target: ALK [L1196M] (Homo sapiens, UniProt Q9UM73, L1196M); test: Kinase inhibition assay, ALK [L1196M]; type: biochemical
Chain of ALK [L1196M] (Q9UM73 19-1620 L1196M): as the sequence (Q9UM73 19-1620) above, with L1178M counted along it
Experimental: as §13, §14

[6] = test system: BaF3 parental; test: Cytotoxicity test (CellTiter-Glo), BaF3 parental; type: cell-based; conditions: Mus musculus, 72 hours, read-out: IC50(nM) parental (Ba/F3)
Experimental: as §1, §2, §3, §4, §5, §6, §7

[7] = Metabolic stability in human liver microsomes; type: in vitro ADME; conditions: pH 7.4, 1 μM compound, 0.5 mg/mL protein; for microsomal CLint at 1 μM: read-out: CLint (uL/min/mg), Human liver microsome experiment; for half-life at 1 μM: read-out: t1/2 (min), Human liver microsome experiment
Experimental: as §8, §9, §10, §11, §12

[8] = test system: ALK[L1196M] (Ba/F3); test: Cytotoxicity test (CellTiter-Glo), BaF3 EML4-ALK L1196M; type: cell-based; conditions: Ba/F3 cells
Experimental: as §1, §2, §3, §4, §5, §6, §7

[9] = molecular target: T2, ALK[L1196M] (Ba/F3) (Homo sapiens, UniProt Q9UM73, L1196M, cells depend on it); test: as above; type: cell-based; conditions: 72 hours, CellTiter-Glo; read-out: IC50(nM) ALK[L1196M] (Ba/F3)
T2 construct: IC50(nM) ALK[L1196M]; (Ba/F3); other: 72 hours, CellTiter-Glo; BaF3 [EMF4-AFK F1196M]; fused on or other part: Q9HC35 (Echinoderm microtubule-associated protein-like 4)
T2 sequence (Q9UM73 whole entry L1196M, the tested form may be a part): as the sequence (Q9UM73 whole entry, change not shown, the tested form may be a part) above, with L1196M counted along it
Experimental: as §1, §2, §3, §4, §5, §6, §7

| microsomal CLint at 1 μM [3] [µL/min/mg] | half-life at 1 μM [3] [min] | IC50 [4] [nM] | IC50 [5] [nM] | microsomal CLint at 1 μM [7] [µL/min/mg] | half-life at 1 μM [7] [min] | Compound | GI50 [1] [nM] | Selectivity parental/ALK [2] | IC50 [6] [nM] | Selectivity parental/ALK[L1196M] [8] | GI50 [9] [nM] |
| --- | --- | --- | --- | --- | --- | --- | --- | --- | --- | --- | --- |
| 28.8 | 48.2 | 2 to 5 | 2 to 5 | 24.6 | 56.3 | COc1cc(C(C)N(C)C)ccc1Nc1ncc(Cl)c(Nc2ccccc2P(C)(C)=O)n1 (stereo not drawn) [Example 8, (2-((5-chloro-2-((4-(1-(dimethylamino)ethyl)-2-methoxyphenyl)amino)pyrimidin-4-yl)amino)phenyl)dimethylphosphine oxide] | 25 to 50 | 100 to 200 | ≥ 1000 | <50 | 100 to 200 |
| 85.1 | 16.3 | 2 to 5 | 2 to 5 | 29.1 | 47.6 | COc1cc(CCN2CCOCC2)ccc1Nc1ncc(Cl)c(Nc2ccccc2P(C)(C)=O)n1 [Example 6, (2-((5-chloro-2-((2-methoxy-4-(2-morpholinoethyl)phenyl)amino)pyrimidin-4-yl)amino)phenyl)dimethylphosphine oxide] | < 25 | 200 to 500 | ≥ 1000 | <50 | 100 to 200 |
| 29.7 | 46.7 | 5 to 10 | 5 to 10 | 18.6 | 74.3 | COc1cc(C(C)CN(C)C)ccc1Nc1ncc(Cl)c(Nc2ccccc2P(C)(C)=O)n1 (stereo not drawn) [Example 17, (2-((5-chloro-2-((4-(1-(dimethylamino)propan-2-yl)-2-methoxyphenyl)amino)pyrimidin-4-yl)amino)phenyl)dimethylphosphine oxide] | 25 to 50 | 100 to 200 | ≥ 1000 | 50 to 100 | 100 to 200 |

Continued, compound first:

| Compound | microsomal CLint at 1 μM [3] [µL/min/mg] | half-life at 1 μM [3] [min] | IC50 [4] [nM] | IC50 [5] [nM] | microsomal CLint at 1 μM [7] [µL/min/mg] | half-life at 1 μM [7] [min] | GI50 [1] [nM] | Selectivity parental/ALK [2] | IC50 [6] [nM] | Selectivity parental/ALK[L1196M] [8] | GI50 [9] [nM] |
| --- | --- | --- | --- | --- | --- | --- | --- | --- | --- | --- | --- |
| COc1cc(CCN(C)C)ccc1Nc1ncc(Cl)c(Nc2ccccc2P(C)(C)=O)n1 [Example 3, (2-((5-chloro-2-((4-(2-(dimethylamino)ethyl)-2-methoxyphenyl)amino)pyrimidin-4-yl)amino)phenyl)dimethylphosphine oxide] | 50.4 | 27.5 | ≤ 2 | 2 to 5 | 15.4 | 90.1 | 25 to 50 | 50 to 100 | ≥ 1000 | <50 | 100 to 200 |
| CNCCc1cc(OC)c(Nc2ncc(Cl)c(Nc3ccccc3P(C)(C)=O)n2)cc1C [Example 21, (2-((5-chloro-2-((2-methoxy-5-methyl-4-(2-(methylamino)ethyl)phenyl)amino)pyrimidin-4-yl)amino)phenyl)dimethylphosphine oxide] | 7.2 | 193 | 2 to 5 | 5 to 10 | 27.7 | 50 | 100 to 200 | <50 | ≥ 1000 | <50 | 200 to 1000 |
| COc1cc(C(C)(C)N(C)C)ccc1Nc1ncc(Cl)c(Nc2ccccc2P(C)(C)=O)n1 [Example 14, (2-((5-chloro-2-((4-(2-(dimethylamino)propan-2-yl)-2-methoxyphenyl)amino)pyrimidin-4-yl)amino)phenyl)dimethylphosphine oxide] | 33.4 | 41.5 | ≤ 2 | 2 to 5 | 29.9 | 46.4 | < 25 | 100 to 200 | ≥ 1000 | <50 | 50 to 100 |
